# Test results reported in patent US20200147217A1, “FUCOIDAN-BASED THERAGNOSTIC COMPOSITION” (National Cancer Center, priority 2018, published 2020).
# How the values were obtained:
# [1] = tested on: HT1080 subcutaneous xenograft tumor; assay: Tumor growth inhibition in HT1080 xenograft model; type: in vivo, Nude mice (Balb/c nude); details: 5 mg Ce6 equivalent/kg i.v., +PDT 670 nm, 20 J/cm^2
# Method: A photodynamic therapeutic effect caused by a photosensitizer-fucoidan conjugate was evaluated in a tumor-transplanted animal model. A tumor model into which HT1080 cancer cells are subcutaneously xenografted was injected intravenously with a free photosensitizer (free Ce6) or Ce6-Fucoidan, and light irradiation (PDT) was performed on the tumor site using a 670 nm laser. To evaluate an antitumor effect, the tumor size was measured daily for 10 days, and differences between the respective groups were analyzed. For the control experimental animals, phosphate buffer containing no photosensitizer was injected intravenously.
# HT1080, a human fibrosarcoma cell line, was obtained from the American Type Culture Collection (ATCC, USA). The HT1080 cells were cultured, under conditions of 37° C., 5% carbon dioxide, and standard humidity, in Eagle's Minimum Essential Media (MEM) medium supplemented with 10% fetal bovine serum (FBS) and 1% penicillin/streptomycin. Nude mice (Balb/c nude) were subcutaneously injected with HT1080 cancer cells as much as 5×10^6 cells/100 μL, and after 5 to 7 days, it was checked whether subcutaneous tumors are produced. […] The tumor size was measured until Day 10 to prepare a tumor growth graph, and the tumor size was compared between the respective groups. […]
# [2] = tested on: HT1080 human fibrosarcoma-transplanted animal model; assay: Tumor-targeting fluorescence imaging after intravenous injection; type: in vivo, mice
# Method: In Example 11, in order to analyze a tumor-targeting effect of a photosensitizer-fucoidan conjugate, an experiment was performed, in which the conjugate is intravenously administered to an experimental animal and a fluorescence image is taken.
# Phosphate buffer (negative control), a free photosensitizer (free Ce6), or a photosensitizer-fucoidan conjugate (Ce6-Fucoidan) was injected intravenously, respectively, into an HT1080 human fibrosarcoma-transplanted animal model, and fluorescence images were taken with an IVIS imaging machine at 5 minutes and 24 hours after the injection (λex 660/20 nm, λem 710/40 nm). […] In FIG. 19B, fluorescence image signal values of the tumor tissues are quantified to compare the amount of photosensitizer accumulated in the tumor tissues. […] FIG. 19C illustrates results obtained by allowing mice to be euthanized, obtaining spleen, kidney, liver, and lung tissues, and identifying ex vivo fluorescence images thereof. […] FIG. 19D illustrates results obtained by freezing the obtained tumor tissues to prepare frozen sections, and then identifying, with a confocal microscope, a degree of penetration of the photosensitizer into each tumor tissue.
substance,measurement,setting,value
chlorin e6 [free Ce6],tumor growth inhibitory effect compared with the control,[1],no statistically significant tumor growth inhibitory effect
same,fluorescence signal caused by the photosensitizer in tumor frozen sections,"[2]; confocal microscope, 24 hours after administration",hardly observed
same,fluorescence image signal in tumor tissues,"[2]; intravenous, 24 hours after injection, IVIS",no fluorescence image signal even in tumor tissues
same,retention in the body,"[2]; intravenous, up to 24 hours, fluorescence imaging",hardly remains in the body at 24 hours
